Experimental findings from ChEMBL document CHEMBL5150056, “Synthesis and antibiofilm evaluation of N-acyl-2-aminopyrimidine derivatives against Acinetobacter baumannii” (Bioorg Med Chem, 2022) are described below.

Converted amounts (≈) assume the structure as drawn. The source made the active and inactive calls. No cut-off for these calls is given here.

Data set [1] relates to Acinetobacter baumannii. The experiment in a line: Antibacterial activity against Acinetobacter baumannii S1 assessed as planktonic growth inhibition incubated for 18 to 24 hrs by CLSI protocol based assay. In kind it is functional. The settings on record: time 18-24 hrs.
The subject of data set [2] is Acinetobacter baumannii. The experiment in a line: Antibiofilm activity against Acinetobacter baumannii S1 assessed as inhibition rate of biofilm formation at 100 uM incubated for 18 to 24 hrs by crystal violet staining based assay (reference value: 28.8 +/- 8.21%). In kind it is functional. The arrangement: scale not given: the % may be the effect or the level left. The settings on record: time 18-24 hrs.

The test system of data set [3] is Pseudomonas aeruginosa. Nature of the data set: Antibiofilm activity against Pseudomonas aeruginosa ATCC 27853 assessed as inhibition rate of biofilm formation at 200 uM incubated for 18 to 24 hrs by crystal violet staining based assay relative to control. In kind it is functional. The note with it: time 18-24 hrs.
For data set [4], the system named is Acinetobacter baumannii. Nature of the data set: Antibiofilm activity against Acinetobacter baumannii ATCC19606 assessed as inhibition of biofilm formation incubated for 18 to 24 hrs by crystal violet staining based assay. The data set is classed as functional, organism-based.
Data set [5] has as its system Acinetobacter baumannii. Nature of the data set: Antibiofilm activity against Acinetobacter baumannii S1 assessed as inhibition of biofilm formation incubated for 18 to 24 hrs by crystal violet staining based assay. The data set is classed as functional, organism-based.
The subject of data set [6] is Acinetobacter baumannii. Nature of the data set: Synergistic antibacterial activity against Acinetobacter baumannii assessed as fractional inhibitory concentration index incubated for 18 to 24 hrs in the presence of gentamycin sulphate by CLSI protocol based checkerboard assay. The data set is classed as functional. The settings on record: time 18-24 hrs.
In data set [7] the test system is Acinetobacter baumannii. Nature of the data set: Antibiofilm activity against Acinetobacter baumannii assessed as reduction in bacterial motility in agar plates by quorum sensing process at 100 uM incubated for 24 hrs. In kind it is functional, organism-based.
Data set [8] has as its system Acinetobacter baumannii. The experiment in a line: Antibiofilm activity against Acinetobacter baumannii 1913061 assessed as inhibition of biofilm formation incubated for 18 to 24 hrs by crystal violet staining based assay. In kind it is functional, organism-based.
The test system of data set [9] is Escherichia coli. Nature of the data set: Antibiofilm activity against Escherichia coli Dh5alpha assessed as inhibition rate of biofilm formation at 200 uM incubated for 18 to 24 hrs by crystal violet staining based assay relative to control. In kind it is functional. The settings on record: DH5-alpha, time 18-24 hrs.
The subject of data set [10] is Acinetobacter baumannii. The experiment in a line: Synergistic antibacterial activity against Acinetobacter baumannii assessed as planktonic growth inhibition incubated for 18 to 24 hrs in the presence of gentamycin sulphate by CLSI protocol based checkerboard assay. The data set is classed as functional. The note with it: time 18-24 hrs.
Data set [11] deals with 3T3-L1. The experiment in a line: Cytotoxicity against mouse 3T3-L1 cells assessed as reduction in cell viability at 100 uM incubated for 24 hrs by MTT assay relative to control. In kind it is toxicity, cell-based. The settings on record: 3t3-l1, 24 h. A general note: Tetrazolium dyes change colour on reduction, which living cells bring about.
Data set [12] deals with Acinetobacter baumannii. Nature of the data set: Synergistic antibacterial activity against Acinetobacter baumannii assessed as fractional inhibitory concentration index incubated for 18 to 24 hrs in the presence of chloramphenicol by CLSI protocol based checkerboard assay. The data set is classed as functional. The note with it: time 18-24 hrs.
In data set [13] the test system is Staphylococcus epidermidis. The experiment in a line: Antibiofilm activity against Staphylococcus epidermis ATCC 102555 assessed as inhibition rate of biofilm formation at 200 uM incubated for 18 to 24 hrs by crystal violet staining based assay relative to control. In kind it is functional. The note with it: time 18-24 hrs.
In data set [14] the test system is 3T3-L1. Nature of the data set: Cytotoxicity against mouse 3T3-L1 cells assessed as reduction in cell viability at 50 uM incubated for 24 hrs by MTT assay relative to control. The data set is classed as toxicity, cell-based. The note with it: 3t3-l1, 24 h.
The test system of data set [15] is Acinetobacter baumannii. Nature of the data set: Antibiofilm activity against Acinetobacter baumannii 1778027 assessed as inhibition of biofilm formation incubated for 18 to 24 hrs by crystal violet staining based assay. In kind it is functional, organism-based.
The subject of data set [16] is Acinetobacter baumannii. The experiment in a line: Synergistic antibacterial activity against Acinetobacter baumannii assessed as planktonic growth inhibition incubated for 18 to 24 hrs in the presence of oxacillin by CLSI protocol based checkerboard assay. In kind it is functional. The note with it: time 18-24 hrs.
Data set [17] concerns Acinetobacter baumannii. The experiment in a line: Antibiofilm activity against Acinetobacter baumannii assessed as reduction in extracellular polysaccharides at 100 uM incubated for 1 hrs by ELISA analysis. In kind it is functional. Further details: scale not given: the % may be the effect or the level left.
Data set [18] concerns Acinetobacter baumannii. The experiment in a line: Antibiofilm activity against Acinetobacter baumannii 1780608 assessed as inhibition of biofilm formation incubated for 18 to 24 hrs by crystal violet staining based assay. In kind it is functional, organism-based.
Data set [19] deals with 3T3-L1. The experiment in a line: Cytotoxicity against mouse 3T3-L1 cells assessed as reduction in cell viability at 25 uM incubated for 24 hrs by MTT assay relative to control. In kind it is toxicity, cell-based. The settings on record: 3t3-l1, 24 h.
Data set [20] relates to Acinetobacter baumannii. The experiment in a line: Antibiofilm activity against Acinetobacter baumannii 1925052 assessed as inhibition of biofilm formation incubated for 18 to 24 hrs by crystal violet staining based assay. In kind it is functional, organism-based.
In data set [21] the test system is Staphylococcus aureus. The experiment in a line: Antibiofilm activity against Staphylococcus aureus ATCC […] assessed as inhibition rate of biofilm formation at 200 uM incubated for 18 to 24 hrs by crystal violet staining based assay relative to control. The note with it: time 18-24 hrs. The data set is classed as functional.
In data set [22] the test system is 3T3-L1. The experiment in a line: Cytotoxicity against mouse 3T3-L1 cells assessed as reduction in cell viability at 200 uM incubated for 24 hrs by MTT assay relative to control. In kind it is toxicity, cell-based. The note with it: 3t3-l1, 24 h.
Data set [23] concerns Acinetobacter baumannii. Nature of the data set: Synergistic antibacterial activity against Acinetobacter baumannii assessed as planktonic growth inhibition incubated for 18 to 24 hrs in the presence of chloramphenicol by CLSI protocol based checkerboard assay. In kind it is functional. The note with it: time 18-24 hrs.
The test system of data set [24] is Acinetobacter baumannii. The experiment in a line: Antibiofilm activity against Acinetobacter baumannii assessed as reduction in biofilm thickness at 100 uM incubated for 24 hrs by Alexa fluor 488 staining based confocal laser microscopic analysis (reference value: 25.91). In kind it is functional.
Data set [25] concerns 3T3-L1. Nature of the data set: Cytotoxicity against mouse 3T3-L1 cells assessed as reduction in cell viability at 12.5 uM incubated for 24 hrs by MTT assay relative to control. In kind it is toxicity, cell-based. The settings on record: 3t3-l1, 24 h.
In data set [26] the test system is Acinetobacter baumannii. Nature of the data set: Antibacterial activity against Acinetobacter baumannii assessed as planktonic growth inhibition incubated for 18 to 24 hrs by CLSI protocol based assay. The data set is classed as functional. The note with it: time 18-24 hrs.
The subject of data set [27] is Acinetobacter baumannii. Nature of the data set: Synergistic antibacterial activity against Acinetobacter baumannii assessed as fractional inhibitory concentration index incubated for 18 to 24 hrs in the presence of oxacillin by CLSI protocol based checkerboard assay. In kind it is functional. The settings on record: time 18-24 hrs.

For the compound `O=C(Cc1cccs1)Nc1ncccn1`, the minimal inhibitory concentration (MIC) in data set [1] was above 256 µg/mL. Also, the Activity in data set [2] turned out to be 5.5%.
With `CCCCCCCCCCCCCC(=O)Nc1ncccn1`, the minimal inhibitory concentration (MIC) in data set [1] was above 256 µg/mL. Moreover, the Activity in data set [2] was determined as 36.3%.
Consider `CCCCCCCCCCCCCC(=O)Nc1nc(Cl)cc(OC)n1`, for which the MIC in data set [1] was above 256 µg/mL. The Activity in data set [2] is given as 49.5%.
On to `CCCCCCCCCCCCCC(=O)Nc1nc(C)cc(Cl)n1`, for which the minimum inhibitory concentration (MIC) in [1] is above 256 µg/mL. For the same compound, the Activity in data set [2] was determined as 46.6%.
For `CCCCCCCCCCCCCC(=O)Nc1nc(F)cc(F)n1`, in [2], the Activity stood at 20.8%.
On to `CCCCCCCCCCCCCC(=O)Nc1nc(C)cc(O)n1`, for which the minimal inhibitory concentration (MIC) in data set [1] was above 256 µg/mL. In addition, the Activity in data set [2] is 37.8%.
With `CCCCCCCCCCCCCC(=O)Nc1nc(N)cc(Cl)n1`, the inhibition at 200 µM in [3], in [9], in [13] and in data set [21] was below 50% in each case. The half-maximal inhibitory concentration (IC50) in data set [4] is 6.34 µM; in data set [5], 39.3 µM; in data set [8], 16.5 µM; in [15], 11.4 µM; in [18], 43.3 µM; in data set [20], 68.1 µM. Also, the “fractional inhibitory concentration index (FICI)” value in [6], in data set [12] and in [27] was 0.25 throughout. Besides, the result in data set [7] was Active. For the same compound, the minimum inhibitory concentration (MIC) in data set [10] is 0.125 µg/mL; in data set [16], 128 µg/mL; in data set [1] it was above 256 µg/mL; in data set [23] it was 64 µg/mL; in data set [26], 256 µg/mL (≈ 721 µM). The Activity is recorded as 100.68% in data set [11]; 100.81% in data set [14]; 65% in data set [17]; 100.89% in data set [19]; 101.81% in [22]; 69.9% in data set [2]. Also, the figures for the Activity in data set [24] and in [25] were 16.04 and 99.88%, respectively.
For `CCCCCCCCCCCCCC(=O)Nc1nc(OC)cc(OC)n1`, the MIC in [1] is above 256 µg/mL. The Activity in data set [2] came to 59.3%.
`CCCCCC(=O)Nc1ncccn1`: in [1], the minimum inhibitory concentration (MIC) was above 256 µg/mL. Further, the Activity in data set [2] amounted to 23.3%.
Consider `CCCCCCCCCCCCCC(=O)Nc1nccc(N)n1`, for which, in [1], the MIC is above 256 µg/mL. Further, in data set [2], the Activity worked out at 35.8%.
As to `CCCCCCCCCCCCCC(=O)Nc1nc(Cl)cc(N(C)C)n1`, in data set [1], the MIC is above 256 µg/mL. In addition, in [2], the Activity is listed as 40.5%.
For the compound `CCCCCCCCCCCCCC(=O)Nc1nc(Cl)cc(NC)n1`, the MIC in [1] was above 256 µg/mL. In data set [2], the Activity came out at 27%.
Regarding `CCCCCCCCCCCCCC(=O)Nc1nc(N)cc(F)n1`, the Activity in data set [2] was determined as 53.1%.
For `O=C(Nc1ncccn1)C1CCC1`, the minimal inhibitory concentration (MIC) in [1] is above 256 µg/mL. Besides, the Activity in data set [2] is recorded as 26.8%.
For `O=C(/C=C/c1ccccc1)Nc1ncccn1` the same measures were above 256 µg/mL and 13.6%.
For `CCOC(=O)CCC(=O)Nc1ncccn1` the same measures were above 256 µg/mL and 19.1%.
With `CCCCCCCCCCCCCC(=O)N1CCN(c2ncccn2)CC1`, in data set [1], the minimal inhibitory concentration (MIC) was above 256 µg/mL. In addition, the Activity in data set [2] was found to be 27.9%.
For the compound `CCCC(=O)Nc1ncccn1`, in [1], the minimal inhibitory concentration (MIC) was above 256 µg/mL. In addition, the Activity in data set [2] came to 28.3%.
Regarding `CC(C)(C)C(=O)Nc1ncccn1`, in [1], the MIC was above 256 µg/mL. Besides, the Activity in [2] came to 12.3%.
As for `CN[C@@H]1[C@@H](O)[C@@H](O[C@@H]2[C@@H](O)[C@H](O[C@H]3O[C@H]([C@@H](C)NC)CC[C@H]3N)[C@@H](N)C[C@H]2N)OC[C@]1(C)O.O=S(=O)(O)O`, the minimal inhibitory concentration (MIC) in data set [26] stood at 1 µg/mL.
In the case of `O=C(COc1ccccc1)Nc1ncccn1`, the minimal inhibitory concentration (MIC) in [1] was above 256 µg/mL. Moreover, in data set [2], the Activity stood at 18.2%.
As for `CCCCCCCC(=O)Nc1ncccn1`, in data set [1], the minimum inhibitory concentration (MIC) was above 256 µg/mL. The Activity in data set [2] worked out at 17.8%.

For orientation: MIC means the least concentration at which growth counts as inhibited. What is called inhibition is the share of the control response that was lost under treatment. Broadly, the IC50 is the midpoint of a concentration-inhibition curve.
